Results: patent US10889611B2, “Sialyltransferase inhibitors and uses thereof” (Academia Sinica, priority 2015, dated 2021)
Marks after values point to notes of the source that are not given here.

Experiments:
[1] = target: T1, α2,3(N)-sialyltransferase ST3GALIII (Rattus norvegicus, UniProt Q02734); test: Sialyltransferase activity assay, ST3GALIII; type: biochemical; details: α2,3-N-link; read-out: IC50 (μM) ST3GALIII
T1 construct: purchased Calbiochem
T1 sequence (Q02734 1-374): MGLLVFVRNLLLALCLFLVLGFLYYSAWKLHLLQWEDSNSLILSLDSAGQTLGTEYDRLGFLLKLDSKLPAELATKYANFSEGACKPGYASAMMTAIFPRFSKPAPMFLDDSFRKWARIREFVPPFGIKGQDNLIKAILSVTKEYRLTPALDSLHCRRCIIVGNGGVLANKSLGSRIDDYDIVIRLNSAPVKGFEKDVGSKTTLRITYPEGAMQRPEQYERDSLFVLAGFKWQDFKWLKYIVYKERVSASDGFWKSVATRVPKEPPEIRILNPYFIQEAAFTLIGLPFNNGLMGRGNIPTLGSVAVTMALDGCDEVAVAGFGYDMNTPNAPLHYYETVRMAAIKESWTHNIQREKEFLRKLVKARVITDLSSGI

[2] = target: T2, α2,3(O)-sialyltransferase ST3GALI (Rattus norvegicus, UniProt Q6H8N0); test: Sialyltransferase inhibition assay, ST3GALI (reverse-phase HPLC); type: biochemical; details: read-out: ST3GALI inhibition percentage
T2 construct: purchased Calbiochem
T2 sequence (Q6H8N0 1-340): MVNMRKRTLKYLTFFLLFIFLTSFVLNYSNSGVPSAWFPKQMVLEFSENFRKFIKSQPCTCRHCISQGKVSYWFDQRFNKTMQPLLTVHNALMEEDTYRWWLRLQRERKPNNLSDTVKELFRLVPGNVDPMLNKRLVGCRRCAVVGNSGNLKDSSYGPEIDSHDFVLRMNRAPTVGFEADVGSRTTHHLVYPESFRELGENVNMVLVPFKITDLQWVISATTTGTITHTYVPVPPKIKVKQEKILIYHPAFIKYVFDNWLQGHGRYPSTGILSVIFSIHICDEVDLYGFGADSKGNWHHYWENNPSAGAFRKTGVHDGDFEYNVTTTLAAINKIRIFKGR
How it was run: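 Rat ST3Gal(I) (1.4 mU) was incubated with 2.5 mM T-antigen and 1 mM CMP-Neu5Ac in 200 mM MES, 100 mM NaCl, 0.5 mM EDTA and 0.01% Triton X-100 with varied inhibitor, 15 min at 37 °C, then heat-quenched. Sialylated product was quantified by reverse-phase HPLC, and kinetic values came from nonlinear regression of initial rates.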

MDA-MB-231 breast cancer = test: Nude mice model of human MDA-MB-231 breast cancer; type: in vivo
Method: BALB/c mice (4-5 weeks old) were subcutaneously injected with 1×10^6 MDA-MB-231 cells to the mammary fat pad on day 0. Tumors were allowed to grow in the mice until the size of the tumor reached 100 mm^3, and then the animals were randomly assigned to 3 groups (n=6-8 per group): tumor (vehicle) control, 10 mg/kg the present compound (e.g., FCW34 or FCW66) treatment group. The present compound was intraperitoneally (i.p.) injected to test animals every three days. The growth and metastasis of the tumors were observed by IVIS imaging system, and the metastasized tumor tissues were collected on day 60, and measured for the volume (V) using calipers and calculated by the formula V=(L×W^2)/2, where L is the length and W is the width of tumor.
The effects of the sialyltransferase inhibitor in tumor growth and metastasis were investigated in a nude mice model of human MDA-MB-231 breast cancer established in accordance with procedures set forth in the “Materials and Methods” section. The MDA-MB-231/Luc cells (5×10^6 cells) were orthotopically injected into the mammary fat pad of nude mice. Then the mice were given FCW34 and vehicle, respectively, on day 20, and the tumor volume were evaluated by bioluminescence every 3 days using IVIS image analysis.

PANC-1 cells = test: In vitro transwell invasion analysis, PANC-1 cells; type: cell-based, human; details: PANC-1 cells grown in fructose-containing medium, FIG. 4
Method: Migration assays were done using a transwell, in which a polycarbonate filter pre-coated with Matrigel (8-μm pores, Millicell; Millipore, Billerica, Mass.) was inserted therein. Cells were serum-starved for 24 h and then seeded (5×10^5 cells per upper chamber) and treated with or without the present compound(s) (concentrations as indicated), and the assays were run for 6 h. Cells that had migrated to the underside of the inserted filter were stained with hematoxylin solution. The cells in the upper side of the inserted membrane were rubbed with a cotton swab. The migrated cells on the underside were pictured in a 200× magnification field and quantified.
In this example, the ability of the FCW34 in suppressing the migration and/or invasion of pancreatic cancer cells was investigated using in vitro transwell analysis and in vivo mice model bearing pancreatic cancer.

[3] = target: T1, α2,3(N)-sialyltransferase ST3GALIII; test: Sialyltransferase activity assay, ST3GALIII; type: biochemical; details: calculated based on the concentration, of ST inhibitor used toward α2,3-O-ST3GALI, listed as 3 (FCW34)
Method: The enzymes analyzed in the present study included rat ST3Gal(I), rat ST3Gal(III), and human ST6Gal(I). Rat ST3Gal(I) and rat ST3Gal(Ill), were purchased from Calbiochem®, while human ST6Gal(I) was purchased from RnDSystems.com.
(§1) Sialyltransferase inhibition assay […] was performed as follows: Sialyltransferase activity was determined by measuring the level of the end product of sialylated saccharides with reverse-phase HPLC. The assay mixtures contained the following components: 200 mM MES buffer; 100 mM NaCl; 0.5 mM EDTA; 0.01% Triton X-100; 1.4 mU ST3GALI; 2.5 mM T-antigen; 1 mM CMP-Neu5Ac and different concentration of Sialyltransferase inhibitors to a total volume of 50 μl. The assay mixture was incubated at 37° C. for 15 mins and then quenched by heating up to 101′C for 10 mins. The sialylated product was resolved by reversed-phase HPLC. Kinetic data were obtained by fitting the initial rate data to the nonlinear regression equation.
as §1, with “mU ST6GALI; 25 μM Galβ1-4GlcNAc;” for “mU ST3GALI; 2.5 mM T-antigen;”, “to 101° C.” for “to 101′C”, “product is” for “product was”, “resolved with” for “resolved by”
Effects of the present compounds on the activity of sialyltransferase, including α2,3(N)-sialyltransferase ST3GALIII, α2,6(N)-sialyltransferases ST6GALI, and α2,3(O)-sialyltransferase ST3GALI, were determined in accordance with procedures described in the “Materials and Methods” section, and results are summarized in Table 1.

**Q.** With C[C@H](CCC(=O)OCCOCCOCCN=[N+]=[N-])C1CC[C@H]2[C@@H]3CC[C@@H]4C[C@H](OC(=O)[C@H](CC(=O)O)Nc5ccc([N+](=O)[O-])c6nonc56)CC[C@]4(C)[C@H]3CC[C@]12C (stereo partly drawn) [Compound 3, (3S)-4-(((3R,5R,8R,9S,10S,13R,14S)-17-((R)-5-(2-(2-(2-azidoethoxy)ethoxy)ethoxy)-5-oxopentan-2-yl)-10,13-dimethylhexadecahydro-1H-cyclopenta[a]phenanthren-3-yl)oxy)-3-((7-nitrobenzo[c][1,2,5]oxadiazol-4-yl)amino)-4-oxobutanoic acid] as the molecule, how does the IC50 [1] read?
**A.** 1.74 ± 0.09 µM

**Q.** And the inhibition at 500 µM ([2]; measured at 500 μM)?
**A.** 0%

**Q.** And the inhibition at 1000 µM ([2]; measured at 1 mM)?
**A.** 60%

**Q.** And the “growth of the cancer cells (tumors harvested on day 60)” value (MDA-MB-231 breast cancer; 10 mg/Kg, FIG. 2B)?
**A.** suppresses the growth

**Q.** And the “level of bioluminescence (tumor growth, IVIS)” value (MDA-MB-231 breast cancer; 10 mg/Kg/mouse/3 days, FIG. 2A)?
**A.** remained at a relatively low level

**Q.** And the “toxic effects (biochemistry tests of blood and body weight assessment)” value (MDA-MB-231 breast cancer; treated mice, data not shown)?
**A.** limited toxic effects

**Q.** And the invasion ability (PANC-1 cells)?
**A.** significantly inhibited

**Q.** And the “selectivity ratio ST3GALI/ST3GALIII” value ([3]; 500 μM)?
**A.** >287^d

**Q.** What about the “selectivity ratio ST3GALI/ST3GALIII” value ([3]; 1 mM) of the same molecule?
**A.** (<575)^e
